Laboratory results taken from patent US20080279795A1, “Tertiary Amine Functional Complex Polyester Polymers And Methods Of Production And Use” (priority 2003, published 2008).

Experiments:
[1] = Rubine Dye test for substantivity on hair (chromameter); details: Example 3, second matrix of prototypes
From the text: The substrate (i.e., surface to which they are applied) in cosmetic applications is either the hair or the skin. […] Cationic conditioning agents act by binding a moiety, typically a long chain alkyl group, to the hair or skin by electrostatic attraction (ionic bonding), but also, weaker forces such as dipole-dipole interactions, and furthermore van der Waals forces can assist in substrate binding. Substantivity is a term used to describe how well a conditioning agent binds to the surface of the substrate. Substantivity of hair conditioning agents is often determined by performing the Rubine Dye test. The Rubine Dye test is designed to show how much of the conditioning ingredient adheres to the hair. Results from the Rubine Dye test are normally evaluated by comparison to some known standard or benchmark.
The polyesteramine prototypes were tested internally for substantivity using the Rubine Dye test protocol. In the Rubine Dye test, the prototypes were benchmarked against Dehyquart® L-80 (dicocoylethyl hydroxyethylmonium methosulfate (and) propylene glycol), a commercial ester quaternary. The materials and equipment used in performing the Rubine Dye analysis were:
The protocol used to perform the Rubine Dye analysis on polyesteramine prototypes and Dehyquart® L-80 and the compositions of ingredients used is described below.
First, a stock dye solution was prepared using the following formula and preparation procedure: […]
In a small vessel, deionized water, Lumicrease Bordeaux 3LR Powder, and glacial acetic acid were agitated at about 20 to about 25° C. until a solution was obtained. […]
From about 0.95 to about 1.05 grams of hair was weighed out and glued onto pre-cut plastic sheets (1.5″×1.5″) using a hot glue gun to attach the swatches to the sheets. […] Quantitative comparisons of dye up-take and relative substantivity of each polymer were performed using a Minolta chromameter. Additionally, dye up-take was evaluated qualitatively by taking photographs of the hair swatches using a digital camera. […]

[2] = tested on: EpiOccular® model made of human-derived epidermal keratinocytes cultured to make them similar to human corneal tissue; assay type: cell-based
Protocol: Irritancy to the eyes and to the skin was tested in-vitro using the EpiDerm® and EpiOccular® test models. EpiDerm® is a human test model of skin made up of normal epidermal keratinocytes. The EpiOccular® model is made of human-derived epidermal keratinocytes cultured to make them similar to human corneal tissue. In each of the tests, tissue samples are treated with the test article for various exposure times. Following treatment, the viability of the tissue is determined using MTT uptake and conversion, and the absorbance of the sample is measured at 540 nanometers (nm) wavelength using a reference wavelength of 690 nm. The viability is expressed as a percentage of control values. The mean percentage viability for each time point is used to calculate the ET50, which represents the time at which the tissue viability is reduced 50% compared to control tissue. […] Typically, higher molecular weight results in lower eye and skin irritancy.

CCCCCCCCCCCCCCCCCC(=O)NCCCN(C)C [Lexamine ® S-13, stearamidopropyldimethylamine]
a-scale value ([1]; higher a = more deposition): 19.16
L-scale value ([1]; lower L = more deposition): 65.15
b-scale value ([1]; lower b = more deposition): 8.57

CCCCCCCCCCCCCCCC[N+](C)(C)C.[Cl-] [cetrimonium chloride]
EpiOcular ® ET50 ([2]; exposure times 16, 64 and […], time at which tissue viability is reduced 50% vs control): 116.9 min
irritancy classification, eyes ([2]; from EpiOcular ET50): more irritating
